System: diaphorase
Assay: fluorescently labeled diaphorase binding to peptide array with or without excess FAD
Conditions: for 1 microM FAD (array fluorescence of bound diaphorase) / 1 micro no FAD (array fluorescence of bound diaphorase): 1 micromolar labeled diaphorase; for 1 microM FAD (array fluorescence of bound diaphorase) / 10 microM FAD (array fluorescence of bound diaphorase): excess FAD present; for 1 microM FAD (array fluorescence of bound diaphorase) / 1 micro no FAD (array fluorescence of bound diaphorase) / 10 microM FAD (array fluorescence of bound diaphorase) / 10 microM no FAD (array fluorescence of bound diaphorase): 65535 is detector saturation; for 10 microM FAD (array fluorescence of bound diaphorase) / 10 microM no FAD (array fluorescence of bound diaphorase): 10 micromolar labeled diaphorase; for 1 microM noFAD/FAD / 10 microM noFAD/FAD: ratio of binding without FAD to binding with FAD; for 1 microM noFAD/FAD / Meas. ratio: 1 micromolar diaphorase; for 10 microM noFAD/FAD: 10 micromolar diaphorase; for Meas. ratio: ratio without/with FAD calculated from measured binding values
Protocol: Measurements were performed in which diaphorase was bound to an array of about 126,000 unique sequences. The sequences were chosen simply to cover sequence space. 16 of the natural 20 amino acids were used to make up these sequences with C, I, M and T omitted. The diaphorase was fluorescently labeled and each peptide sequence feature was scanned and fluorescence recorded on the array. Diaphorase bound tightly to some peptides and not at all to others. Two different concentrations of diaphorase were used, 1 and 10 micromolar, and the diaphorase was either bound in the presence of excess FAD or not. […] Indeed the Pearson correlation coefficient between w/ and w/o FAD was >0.97, which actually speaks to the reproducibility of this dataset. However, there are some differences as shown on the scatter plot of FIG. 1. When one takes a ratio of the binding without FAD and the binding with FAD, one finds the following top 30 ratios (Table 1): Note that all these sequences end with a GSG linker sequence. Because there are two concentrations, one can easily check for consistency. Note that 65535 is detector saturation, so one has to ignore those values. For this reason, the lower concentration is used most of the time. […] It appears that this was some kind of error and was ignored in subsequent analysis. A similar conclusion can be made with the 7th highest value. Looking at the sequences, RW or at least R or K followed by a nonpolar or aromatic amino acid at the N-terminus. This is interesting as FAD is negatively charged, though the adenine in FAD looks a bit like tryptophan (see FIG. 2).

LLGFLGGSG [array peptide with C-terminal GSG linker]
1 microM FAD (array fluorescence of bound diaphorase): 4143.5
1 micro no FAD (array fluorescence of bound diaphorase): 2317.75
10 microM FAD (array fluorescence of bound diaphorase): 40264.25
10 microM no FAD (array fluorescence of bound diaphorase): 26253
1 microM noFAD/FAD: 0.5594
10 microM noFAD/FAD: 0.652
Meas. ratio: 0.56

DLFQLVFSGSG [array peptide with C-terminal GSG linker]
1 microM FAD (array fluorescence of bound diaphorase): 9011
1 micro no FAD (array fluorescence of bound diaphorase): 5775
10 microM FAD (array fluorescence of bound diaphorase): 65535
10 microM no FAD (array fluorescence of bound diaphorase): 32672.5
1 microM noFAD/FAD: 0.6409
10 microM noFAD/FAD: 0.4986
Meas. ratio: 0.64

PRSFGYNNVGGSG [array peptide with C-terminal GSG linker]
1 microM FAD (array fluorescence of bound diaphorase): 2525.5
1 micro no FAD (array fluorescence of bound diaphorase): 6842.5
10 microM FAD (array fluorescence of bound diaphorase): 40495.5
10 microM no FAD (array fluorescence of bound diaphorase): 65535
1 microM noFAD/FAD: 2.709
10 microM noFAD/FAD: 1.618
Meas. ratio: 2.71

RPLQVQRGGSG [array peptide with C-terminal GSG linker]
1 microM FAD (array fluorescence of bound diaphorase): 14421.5
1 micro no FAD (array fluorescence of bound diaphorase): 5406
10 microM FAD (array fluorescence of bound diaphorase): 41059.5
10 microM no FAD (array fluorescence of bound diaphorase): 53243
1 microM noFAD/FAD: 0.3749
10 microM noFAD/FAD: 1.297
Meas. ratio: 0.37

RYYPAFSGGSG [array peptide with C-terminal GSG linker]
1 microM FAD (array fluorescence of bound diaphorase): 7535.25
1 micro no FAD (array fluorescence of bound diaphorase): 21898
10 microM FAD (array fluorescence of bound diaphorase): 65535
10 microM no FAD (array fluorescence of bound diaphorase): 65535
1 microM noFAD/FAD: 2.906
10 microM noFAD/FAD: 1
Meas. ratio: 2.91

PRYSGQYGGSG [array peptide with C-terminal GSG linker]
1 microM FAD (array fluorescence of bound diaphorase): 3234.25
1 micro no FAD (array fluorescence of bound diaphorase): 8432.75
10 microM FAD (array fluorescence of bound diaphorase): 45157.75
10 microM no FAD (array fluorescence of bound diaphorase): 65535
1 microM noFAD/FAD: 2.607
10 microM noFAD/FAD: 1.451
Meas. ratio: 2.61

PRFNWKPYGGSG [array peptide with C-terminal GSG linker]
Meas. ratio: 2.44

YSVDYWYQVDGSG [array peptide with C-terminal GSG linker]
1 microM FAD (array fluorescence of bound diaphorase): 10415
1 micro no FAD (array fluorescence of bound diaphorase): 1802.5
10 microM FAD (array fluorescence of bound diaphorase): 19218.25
10 microM no FAD (array fluorescence of bound diaphorase): 19784.75
1 microM noFAD/FAD: 0.1731
10 microM noFAD/FAD: 1.029
Meas. ratio: 0.17

YVWGLELSGGSG [array peptide with C-terminal GSG linker]
1 microM FAD (array fluorescence of bound diaphorase): 4688.5
1 micro no FAD (array fluorescence of bound diaphorase): 2607.5
10 microM FAD (array fluorescence of bound diaphorase): 36320
10 microM no FAD (array fluorescence of bound diaphorase): 17286.5
1 microM noFAD/FAD: 0.5561
10 microM noFAD/FAD: 0.4759
Meas. ratio: 0.56

YRPYGPVYNGGSG [array peptide with C-terminal GSG linker]
1 microM FAD (array fluorescence of bound diaphorase): 6762.5
1 micro no FAD (array fluorescence of bound diaphorase): 18709.5
10 microM FAD (array fluorescence of bound diaphorase): 65535
10 microM no FAD (array fluorescence of bound diaphorase): 65535
1 microM noFAD/FAD: 2.767
10 microM noFAD/FAD: 1
Meas. ratio: 2.77

DLDKAFGGSG [array peptide with C-terminal GSG linker]
1 microM FAD (array fluorescence of bound diaphorase): 2049.75
1 micro no FAD (array fluorescence of bound diaphorase): 607.25
10 microM FAD (array fluorescence of bound diaphorase): 2142.25
10 microM no FAD (array fluorescence of bound diaphorase): 1853
1 microM noFAD/FAD: 0.2963
10 microM noFAD/FAD: 0.865
Meas. ratio: 0.30

WRSVYVPNGGSG [array peptide with C-terminal GSG linker]
Meas. ratio: 2.35

— patent publication US20190064177A1, “INCORPORATING COMPETITIVE BINDING INFORMATION INTO MOLECULAR ARRAY ANALYSIS TO GENERATE FUNCTION NETWORKS OF INTERACTIONS” (ARIZONA BOARD OF REGENTS ON BEHALF OF ARIZONA STATE …, priority 2017, published 2019)
